ChEMBL document CHEMBL1240494, “Radiosynthesis and in vivo evaluation of [(11)C]MC80 for P-glycoprotein imaging” (Bioorg Med Chem, 2010)

Legend:
Kidney [1] = assay: Biodistribution in FVB mouse kidney at 4.5 MBq, iv after 60 mins postinjection pretreated with cyclosporin A; format: ADME, organism-based; conditions: in vivo, 1 h
Liver [2] = assay: Biodistribution in FVB mouse liver at 4.5 MBq, iv after 60 mins postinjection pretreated with cyclosporin A; format: ADME, organism-based; conditions: in vivo, 1 h
Heart [3] = assay: Biodistribution in FVB mouse heart at 4.5 MBq, iv after 1 min postinjection; format: ADME, organism-based; conditions: in vivo
Lung [4] = assay: Biodistribution in FVB mouse lung at 4.5 MBq, iv after 1 min postinjection; format: ADME, organism-based; conditions: in vivo
Brain [5] = assay: Biodistribution in mdr1a deficient mouse brain at 4.5 MBq, iv after 60 mins postinjection; format: ADME, organism-based; conditions: in vivo, 1 h
Lung [6] = assay: Biodistribution in mdr1a deficient mouse lung at 4.5 MBq, iv after 1 min postinjection; format: ADME, organism-based; conditions: in vivo
Heart [7] = assay: Biodistribution in mdr1a deficient mouse heart at 4.5 MBq, iv after 60 mins postinjection; format: ADME, organism-based; conditions: in vivo, 1 h
Kidney [8] = assay: Biodistribution in mdr1a deficient mouse kidney at 4.5 MBq, iv after 60 mins postinjection; format: ADME, organism-based; conditions: in vivo, 1 h
Liver [9] = assay: Biodistribution in mdr1a deficient mouse liver at 4.5 MBq, iv after 60 mins postinjection; format: ADME, organism-based; conditions: in vivo, 1 h
[10] = Ratio of drug uptake in brain to blood in FVB mouse at 18.5 MBq, iv after 30 mins postinjection; format: ADME, organism-based; conditions: 0.5 h
[11] = Ratio of drug uptake in brain to blood in FVB mouse at 18.5 MBq, iv after 90 mins postinjection; format: ADME, organism-based; conditions: 1.5 h
[12] = Ratio of drug uptake in testes to blood in FVB mouse at 18.5 MBq, iv after 30 mins postinjection; format: ADME, organism-based; conditions: in vivo, 0.5 h
[13] = Ratio of drug uptake in brain to blood in FVB mouse at 18.5 MBq, iv after 1 min postinjection pretreated with cyclosporin A; format: ADME, organism-based
[14] = Ratio of drug uptake in brain to blood in FVB mouse at 18.5 MBq, iv after 30 mins postinjection pretreated with cyclosporin A; format: ADME, organism-based; conditions: 0.5 h
[15] = Partition coefficient, log D of the compound; format: physicochemical; conditions: octanol/water
Blood = assay: Biodistribution in FVB mouse blood at 4.5 MBq, iv after 1 min postinjection; format: ADME, organism-based; conditions: in vivo
Brain [16] = assay: Biodistribution in FVB mouse brain at 4.5 MBq, iv after 1 min postinjection; format: ADME, organism-based; conditions: in vivo
Brain [17] = assay: Biodistribution in FVB mouse brain at 4.5 MBq, iv after 90 mins postinjection; format: ADME, organism-based; conditions: in vivo, 1.5 h
Liver [18] = assay: Biodistribution in FVB mouse liver at 4.5 MBq, iv; format: ADME, organism-based; conditions: in vivo
[19] = Biodistribution in FVB mouse small intestine at 4.5 MBq, iv after 1 min postinjection; format: ADME, organism-based; conditions: in vivo
[20] = Biodistribution in FVB mouse small intestine at 4.5 MBq, iv after 90 mins postinjection; format: ADME, organism-based; conditions: in vivo, 1.5 h
[21] = Biodistribution in FVB mouse large intestine at 4.5 MBq, iv after 1 min postinjection; format: ADME, organism-based; conditions: in vivo
[22] = Biodistribution in FVB mouse large intestine at 4.5 MBq, iv after 90 mins postinjection; format: ADME, organism-based; conditions: in vivo, 1.5 h
[23] = Biodistribution in FVB mouse testes at 4.5 MBq, iv after 60 mins postinjection pretreated with cyclosporin A; format: ADME, organism-based, Testis; conditions: in vivo, 1 h
Pancreas = assay: Biodistribution in FVB mouse pancreas at 4.5 MBq, iv after 60 mins postinjection pretreated with cyclosporin A; format: ADME, organism-based; conditions: in vivo, 1 h
Spleen = assay: Biodistribution in FVB mouse spleen at 4.5 MBq, iv after 60 mins postinjection pretreated with cyclosporin A; format: ADME, organism-based; conditions: in vivo, 1 h

Drug uptake (Kidney [1]): 2.46 % ID/g | Drug uptake (Liver [2]): 4.86 % ID/g | Drug uptake (Heart [3]): 10.69 % ID/g | Drug uptake (Lung [4]): 31.35 % ID/g | Drug uptake (Brain [5]): 1.09 % ID/g | Drug uptake (Lung [6]): 31.35 % ID/g | Drug uptake (Heart [7]): 10.69 % ID/g | Drug uptake (Kidney [8]): 2.46 % ID/g | Drug uptake (Liver [9]): 4.86 % ID/g | Ratio [10]: 2.17 | Ratio [11]: 1.05 | Ratio [12]: 3.04 | Ratio [13]: 2.91 | Ratio [14]: 1.5 | logD [15]: 1.96 | Drug uptake (Blood): 2.56 % ID/g | Drug uptake (Brain [16]): 7.66 % ID/g | Drug uptake (Brain [17]): 0.9 % ID/g | Drug uptake (Liver [18]): 8.71 % ID/g | Drug uptake [19]: 3.89 % ID/g | Drug uptake [20]: 11.78 % ID/g | Drug uptake [21]: 1.83 % ID/g | Drug uptake [22]: 2.18 % ID/g | Drug uptake [23]: 2.56 % ID/g | Drug uptake (Pancreas): 6.85 % ID/g | Drug uptake (Spleen): 1.52 % ID/g
Compound: COc1cc2c(cc1OC)CN(Cc1ccc3cc(O[11CH3])ccc3c1)CC2
